Laboratory results published in patent US9751837B2, “Kinase inhibitors” (RESPIVERT LIMITED, priority 2014, dated 2017).
Read-outs that look alike come from different tables or passages of the source.

How the values were obtained:
Lck = Lck (Homo sapiens (Human), UniProt P06239); assay: KINOMEscan dissociation constant, Lck; assay type: binding
Description: (§1) These assays may be conducted by DiscoverX (formerly Ambit; San Diego, Calif.).

p38 MAPKα = p38 MAPKα (Homo sapiens (Human), UniProt Q16539); assay: KINOMEscan dissociation constant, p38 MAPKα; assay type: binding
Sequence of p38 MAPKα (Q16539 whole entry): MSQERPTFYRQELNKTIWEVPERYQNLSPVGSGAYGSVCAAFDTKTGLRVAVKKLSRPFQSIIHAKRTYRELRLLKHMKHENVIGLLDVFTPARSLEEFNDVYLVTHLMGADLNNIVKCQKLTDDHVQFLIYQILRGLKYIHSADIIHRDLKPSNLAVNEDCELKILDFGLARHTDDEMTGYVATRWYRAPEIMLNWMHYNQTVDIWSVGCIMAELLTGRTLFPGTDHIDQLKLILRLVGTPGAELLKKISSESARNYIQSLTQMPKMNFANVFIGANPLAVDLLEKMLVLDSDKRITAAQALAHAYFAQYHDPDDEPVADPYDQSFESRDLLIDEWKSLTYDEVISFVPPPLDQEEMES
Description: as §1

Syk = Syk (Homo sapiens (Human), UniProt P43405); assay: KINOMEscan dissociation constant, Syk; assay type: binding
Description: as §1

GSK 3α = GSK 3α (Homo sapiens (Human), UniProt P49840); assay: GSK 3α enzyme inhibition (Method 2), Z-LYTE FRET; assay type: biochemical; conditions: read-out: IC50 Values for Enzyme Inhibition GSK3α
Sequence of GSK 3α (P49840 whole entry): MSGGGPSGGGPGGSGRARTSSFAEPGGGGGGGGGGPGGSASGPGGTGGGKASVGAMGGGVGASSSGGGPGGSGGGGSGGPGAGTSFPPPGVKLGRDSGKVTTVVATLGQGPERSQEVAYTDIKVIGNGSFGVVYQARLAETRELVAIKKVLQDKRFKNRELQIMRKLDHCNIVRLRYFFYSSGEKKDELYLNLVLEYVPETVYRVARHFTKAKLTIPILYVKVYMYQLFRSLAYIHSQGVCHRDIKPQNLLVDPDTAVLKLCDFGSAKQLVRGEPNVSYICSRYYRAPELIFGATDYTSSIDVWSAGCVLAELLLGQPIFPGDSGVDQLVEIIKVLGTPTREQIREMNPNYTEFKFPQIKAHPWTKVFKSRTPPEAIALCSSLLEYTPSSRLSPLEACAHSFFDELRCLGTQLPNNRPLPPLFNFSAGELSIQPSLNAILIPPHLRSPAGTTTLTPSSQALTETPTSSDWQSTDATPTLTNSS
Procedure, shortened: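 Z-LYTE format: the protease cleaves only non-phosphorylated peptide, and the donor/acceptor (coumarin/fluorescein) ratio reports phosphorylation after a 1 hr kinase reaction with peptide (8 μM stock) and ATP (40 μM stock).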

hERG = hERG (Homo sapiens (Human), UniProt Q12809); assay: hERG inhibition, IonWorks patch clamp electrophysiology; assay type: cell-based; conditions: human, hERG, read-out: % Inhibition at Top Concentration
Sequence of hERG (Q12809 whole entry): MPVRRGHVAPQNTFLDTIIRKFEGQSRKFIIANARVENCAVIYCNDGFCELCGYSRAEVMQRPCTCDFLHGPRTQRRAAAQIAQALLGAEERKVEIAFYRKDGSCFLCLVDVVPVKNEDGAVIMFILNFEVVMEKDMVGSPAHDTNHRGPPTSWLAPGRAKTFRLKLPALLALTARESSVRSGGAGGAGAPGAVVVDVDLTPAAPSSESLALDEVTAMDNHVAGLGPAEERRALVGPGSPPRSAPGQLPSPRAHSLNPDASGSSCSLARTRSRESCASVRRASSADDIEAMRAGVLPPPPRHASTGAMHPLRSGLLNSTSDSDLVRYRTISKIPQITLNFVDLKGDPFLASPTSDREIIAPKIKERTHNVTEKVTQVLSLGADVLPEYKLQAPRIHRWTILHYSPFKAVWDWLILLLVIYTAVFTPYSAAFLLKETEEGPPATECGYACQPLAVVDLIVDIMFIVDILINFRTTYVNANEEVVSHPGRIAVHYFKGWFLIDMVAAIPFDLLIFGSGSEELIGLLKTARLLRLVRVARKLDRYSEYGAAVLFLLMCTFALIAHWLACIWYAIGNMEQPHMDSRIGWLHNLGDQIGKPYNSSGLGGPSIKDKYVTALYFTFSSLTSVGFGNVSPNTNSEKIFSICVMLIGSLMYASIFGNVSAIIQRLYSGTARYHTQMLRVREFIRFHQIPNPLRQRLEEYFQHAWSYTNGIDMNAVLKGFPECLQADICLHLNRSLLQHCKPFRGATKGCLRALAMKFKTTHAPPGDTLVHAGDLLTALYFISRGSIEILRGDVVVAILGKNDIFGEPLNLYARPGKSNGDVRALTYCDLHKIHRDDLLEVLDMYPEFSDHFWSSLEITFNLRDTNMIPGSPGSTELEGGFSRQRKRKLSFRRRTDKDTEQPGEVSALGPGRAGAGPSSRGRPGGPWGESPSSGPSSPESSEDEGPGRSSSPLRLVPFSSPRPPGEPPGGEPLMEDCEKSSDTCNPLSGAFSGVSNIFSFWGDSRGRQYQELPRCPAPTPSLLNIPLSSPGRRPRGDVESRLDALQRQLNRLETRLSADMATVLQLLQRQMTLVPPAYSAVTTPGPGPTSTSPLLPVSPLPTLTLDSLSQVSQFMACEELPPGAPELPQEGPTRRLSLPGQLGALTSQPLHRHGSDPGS
Experimental: (§2) Compounds of the invention were tested for inhibition of the human ether a go-go (hERG) channel using IonWorks™ patch clamp electrophysiology at Essen Bioscience (Welwyn Garden City, England).

[1] = molecular target: human ether a go-go (hERG) channel (Homo sapiens (Human), UniProt Q12809); assay: as above; assay type: cell-based; conditions: IonWorks patch clamp
Sequence of human ether a go-go (hERG) channel (Q12809 whole entry): as above
Experimental: as §2

B-Raf = B-Raf (Homo sapiens (Human), UniProt P15056); assay: KINOMEscan binding of B-Raf to its standard ligand
Sequence of B-Raf (P15056 whole entry): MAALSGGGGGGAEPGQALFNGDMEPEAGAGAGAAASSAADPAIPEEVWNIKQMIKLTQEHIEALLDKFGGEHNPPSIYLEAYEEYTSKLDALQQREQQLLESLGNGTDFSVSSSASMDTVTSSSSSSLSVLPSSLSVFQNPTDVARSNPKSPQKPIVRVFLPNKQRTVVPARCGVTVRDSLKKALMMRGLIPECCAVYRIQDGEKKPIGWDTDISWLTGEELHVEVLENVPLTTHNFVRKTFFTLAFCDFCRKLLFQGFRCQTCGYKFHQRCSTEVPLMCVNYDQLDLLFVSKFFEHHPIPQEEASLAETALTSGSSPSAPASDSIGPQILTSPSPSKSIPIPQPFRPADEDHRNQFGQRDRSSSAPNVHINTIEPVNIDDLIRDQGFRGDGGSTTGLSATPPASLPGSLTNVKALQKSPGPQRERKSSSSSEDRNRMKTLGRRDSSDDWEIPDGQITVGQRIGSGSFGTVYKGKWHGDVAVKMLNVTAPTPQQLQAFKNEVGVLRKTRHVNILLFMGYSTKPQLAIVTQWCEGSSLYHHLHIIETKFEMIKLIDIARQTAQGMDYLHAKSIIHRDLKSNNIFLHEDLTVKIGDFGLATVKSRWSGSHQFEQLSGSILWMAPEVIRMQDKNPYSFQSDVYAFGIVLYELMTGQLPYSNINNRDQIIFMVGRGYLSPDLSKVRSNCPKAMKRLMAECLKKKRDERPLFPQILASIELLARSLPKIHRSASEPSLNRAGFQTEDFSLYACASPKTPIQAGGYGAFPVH
Description: as §1

B-Raf (V600E) = B-Raf (V600E) (Homo sapiens (Human), UniProt P15056, V600E); assay: KINOMEscan binding of B-Raf (V600E) to its standard ligand
Sequence of B-Raf (V600E) (P15056 whole entry V600E): as the sequence (P15056 whole entry) above, with V600E counted along it
Description: as §1

[2] = Pharmacokinetics and total colon distribution after single oral administration; assay type: in vivo, male C57BL/6 mice; conditions: male, C57BL/6, mouse, mice, oral 5 mg/kg
Experimental: Studies were conducted by Sai Life Sciences (Hinjewadi, Pune, India) to investigate the systemic pharmacokinetics and total colon tissue distribution of compounds of the invention. In particular, pharmacokinetic studies were carried out in male C57BL/6 mice following a single oral administration of the compound.

[3] = tested on: Escherichia coli, WP2 uvrA; assay: Bacterial reverse mutation screen, Escherichia coli
[4] = tested on: Salmonella typhimurium, strains TA1535, TA1537, TA98 and TA100; assay: Bacterial reverse mutation screen, Salmonella typhimurium
non-mutant kinases = assay: KinomeScan Selectivity Scores; assay type: binding
Description: as §1

Jurkat cells = assay: Cell cytotoxicity assay (r); assay type: cell-based, human; conditions: 24 hours, 5 μg/mL
Procedure, shortened: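 Viability read by flow cytometry as the fraction of propidium iodide-negative cells (7.5 μg/mL PI, 15 min), relative to 1.0% DMSO control. Beforehand, 1×10^5 Jurkat cells in RPMI/10% FBS were treated 24 h at 37° C., 5% CO2 with test compound at final 20, 5 or 1 μg/mL.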

[5] = plasma, measured cpd = dosed cpd (1 as Na salt, 44 as NH4+ salt), read-out: Mean plasma concentration
[6] = total colon tissue, measured cpd = dosed cpd (1, 19, 47 as Na salt, 44 as NH4+ salt), read-out: total colon level
[7] = total colon, measured cpd = dosed cpd (1, 19, 47 as Na salt, 44 as NH4+ salt), read-out: total colon level
[8] = blood, measured cpd = dosed cpd (19, 47 as Na salt), read-out: Mean blood concentration

Sequence of Lck (P06239 whole entry): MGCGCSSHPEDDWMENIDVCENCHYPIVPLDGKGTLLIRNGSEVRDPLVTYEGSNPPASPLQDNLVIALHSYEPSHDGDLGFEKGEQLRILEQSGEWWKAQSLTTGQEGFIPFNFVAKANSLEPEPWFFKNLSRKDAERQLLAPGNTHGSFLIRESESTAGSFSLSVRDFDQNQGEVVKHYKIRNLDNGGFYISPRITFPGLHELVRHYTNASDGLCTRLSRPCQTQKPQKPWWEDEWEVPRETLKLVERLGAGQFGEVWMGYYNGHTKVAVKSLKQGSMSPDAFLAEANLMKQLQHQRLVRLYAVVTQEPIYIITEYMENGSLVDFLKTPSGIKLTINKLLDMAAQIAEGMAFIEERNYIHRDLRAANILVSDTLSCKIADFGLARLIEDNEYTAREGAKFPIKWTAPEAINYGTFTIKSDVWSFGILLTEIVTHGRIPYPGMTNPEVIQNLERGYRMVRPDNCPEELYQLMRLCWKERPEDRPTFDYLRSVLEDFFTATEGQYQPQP

SMILES	Kd (Lck) [nM]	Kd (p38 MAPKα) [nM]	Kd (Syk) [nM]	IC50 [1] [nM]	effect on the binding of B-Raf to its standard ligand (B-Raf)	effect on the binding of B-Raf (V600E) to its standard ligand (B-Raf (V600E))	concentration at 2 h [2, 6] [ng/g]	concentration at 4 h [2, 6] [ng/g]	concentration at 6 h [2, 6] [ng/g]	concentration at 8 h [2, 6] [ng/g]	concentration at 12 h [2, 6] [ng/g]	concentration at 0.5 h [2, 7] [ng/g]	concentration at 1 h [2, 7] [ng/g]	concentration at 24 h [2, 7] [ng/g]	inhibition at 11 µM (hERG) [%]	also measured
COc1cc(Nc2cc(Oc3ccc(NC(=O)Nc4cc(C(C)(C)C)cc(NS(C)(=O)=O)c4OC)c4ccccc34)ccn2)ccc1C(=O)NCCN1CCOCC1 [Example 2, 4-((4-((4-(3-(5-(tert-Butyl)-2-methoxy-3-(methylsulfonamido)phenyl)ureido)naphthalen-1-yl)oxy)pyridin-2-yl)amino)-2-methoxy-N-(2-morpholinoethyl)benzamide]	5.8	23	18	> 3300	–	–	–	–	–	–	–	–	–	–	–	IC50 (GSK 3α): 2300 nM; inhibition at 3 µM (hERG; 3 μM): -2%
COc1cc(Nc2cc(Oc3ccc(NC(=O)Nc4cc(C(C)(C)C)cc(NS(C)(=O)=O)c4OC)c4ccccc34)ccn2)ccc1P(C)(=O)O [Example 44, (4-((4-((4-(3-(5-(tert-Butyl)-2-methoxy-3-(methylsulfonamido)phenyl)ureido)naphthalen-1-yl)oxy)pyridin-2-yl)amino)-2-methoxyphenyl)(methyl)phosphinic acid]	5.3	1.9	6.6	> 11000	did not have any significant effect	did not have any significant effect	2330	1750	450	915	180	0	0	0	18	concentration at 0.5 h [2, 5]: 0 ng/mL; concentration at 1 h [2, 5]: 0 ng/mL; concentration at 2 h [2, 5]: 0 ng/mL; concentration at 4 h [2, 5]: 0 ng/mL; concentration at 6 h [2, 5]: 0 ng/mL; concentration at 8 h [2, 5]: 0 ng/mL; concentration at 12 h [2, 5]: 0 ng/mL; concentration at 24 h [2, 5]: 0 ng/mL; dose with reduction in the mean colony count (toxicity to the bacteria) ([3]; absence of S-9 mix): 5000 μg/plate; mutagenic effects (revertant numbers) ([3]; presence or absence of S-9 mix, plate incorporation): absence of any mutagenic effects; dose with reduction in the mean colony count (toxicity to the bacteria) ([4]; TA98, presence of S-9 mix): 5000 μg/plate; dose with reduction in the mean colony count (toxicity to the bacteria) ([4]; TA100, presence of S-9 mix): 5000 μg/plate; mutagenic effects (revertant numbers) ([4]; TA1535, TA1537, TA98, TA100, presence or absence of S-9 mix, plate incorporation): absence of any mutagenic effects; dose with reduction in the mean colony count (toxicity to the bacteria) ([4]; TA1535, presence of S-9 mix): 5000 μg/plate; dose with reduction in the mean colony count (toxicity to the bacteria) ([4]; TA1537, presence of S-9 mix): 5000 μg/plate; limit of solubility in the mutation test ([4]; all strains, presence and absence of S-9 mix, plate incorporation): 5000 μg/plate
COc1cc(Nc2cc(Oc3ccc(NC(=O)Nc4cc(C(C)(C)C)cc(NS(C)(=O)=O)c4OC)c4ccccc34)ccn2)cc(OC)c1C(=O)NCCOCCOCCOP(=O)(O)O [Example 47, 2-(2-(2-(4-((4-((4-(3-(5-(tert-butyl)-2-methoxy-3-(methylsulfonamido)phenyl)ureido)-naphthalen-1-yl)oxy)pyridin-2-yl)amino)-2,6-dimethoxybenzamido)ethoxy)ethoxy)ethyl dihydrogen phosphate]	–	–	–	> 11000	did not have any significant effect	did not have any significant effect	0	0	0	0	0	0	0	0	19	KinomeScan Selectivity Score S(10) (non-mutant kinases; 50 nM, (non-mutant kinases with % Ctrl <10)/(non-mutant kinases tested)): 0.042; KinomeScan Selectivity Score S(1) (non-mutant kinases; 500 nM, (non-mutant kinases with % Ctrl <1)/(non-mutant kinases tested)): 0.074; % Viability at 5 μg/mL (Jurkat cells): 96.0%; concentration at 0.5 h [2, 8]: 0 ng/mL; concentration at 1 h [2, 8]: 0 ng/mL; concentration at 2 h [2, 8]: 0 ng/mL; concentration at 4 h [2, 8]: 0 ng/mL; concentration at 6 h [2, 8]: 0 ng/mL; concentration at 8 h [2, 8]: 0 ng/mL; concentration at 12 h [2, 8]: 0 ng/mL; concentration at 24 h [2, 8]: 0 ng/mL
